Source: US20170239351A1, “Therapeutic Combinations of a BTK Inhibitor, a PI3K Inhibitor, a JAK-2 Inhibitor, a PD-1 Inhibitor, and/or a PD-L1 Inhibitor” (Acerta Pharma B.V., priority 2014, published 2017)

Legend:
[1] = system: expression of activation markers CD69 and CD86; test: In vivo potency: BCR stimulated with IgM, CD69 and CD86 expression by flow cytometry; conditions: mice gavaged, 3 h post-dose
Procedure: Mice were gavaged at increasing drug concentration and sacrificed at one time point (3 h post-dose). BCR is stimulated with IgM and the expression of activation markers CD69 and CD86 are monitored by flow cytometry to determine EC50's.

KPC pancreatic cancer = KPC pancreatic cancer model; conditions: in vivo
[2] = system: regulatory T cell (Treg) development; test: Regulatory T cell (Treg) development; type: cell-based
CD8^+ T cell = test: CD8+ T cell viability; type: cell-based
CD8^+ T cell function = test: IFN-γ level measurements for CD8+ T cell function; type: cell-based; conditions: relative to vehicle
CD4^+ T cells = test: Th17 and Treg development from CD4+ T cells; type: cell-based
Procedure: Enriched CD4^+ T cells are plated on 24-well culture dishes that have been precoated 2 hr with 250 μL anti-TCRβ (0.5 μg/mL) plus anti-CD28 (5 μg/mL) at 37° C. in PBS. The cells are then supplemented with media containing BTK inhibitors along with the skewing cytokines as indicated in the following. The Th17 and Treg cultures are grown for 4 days before analysis. The cells are maintained for an additional 3 days with skewing cytokines (Th17; 20 ng/mL IL-6, 0.5 ng/mL TGF-β, 5 μg/mL IL-4, 5 μg/mL IFN-γ and Treg; 0.5 ng/mL TGF-β, 5 μg/mL IL-4, 5 μg/mL IFN-γ) and are supplemented with IL2 as a growth factor.

relapsed/refractory CLL = test: Clinical study of Formula (XVIII) in relapsed/refractory CLL/SLL

In the case of `CC#CC(=O)N1CCC[C@H]1c1nc(-c2ccc(C(=O)Nc3ccccn3)cc2)c2c(N)nccn12` [Formula (XVIII), (S)-4-(8-amino-3-(1-(but-2-ynoyl)pyrrolidin-2-yl)imidazo[1,5-a]pyrazin-1-yl)-N-(pyridin-2-yl)benzamide], the “inhibition of expression of activation markers CD69 and CD86, compared with ibrutinib” value [1] is reported as “more potent at inhibiting expression of activation makers than ibrutinib”, the “immunosuppressive MDSCs (Gr1+Ly6CHi) in tumor tissues” value (KPC pancreatic cancer) is reported as “significantly reduced” and the “immunosuppressive TAMs (CD11b+Ly6ClowF4/80+Csf1r+) in tumor tissues” value (KPC pancreatic cancer) is reported as “significantly reduced”. The “immunosuppressive Tregs (CD4+CD25+FoxP3+) in tumor tissues” value (KPC pancreatic cancer) was “significantly reduced”, the “effect on Treg development” value [2] was “no effect on regulatory T cell (Treg) development” and the “effect on CD8+ T cell viability” value (CD8^+ T cell) was “no effect on CD8^+ T cell viability”. The “CD8+ T cell function as measured by IFN-γ level” value (CD8^+ T cell function) was “no effect on CD8^+ T cell function”, the “effect on Th17 and Treg development” value (CD4^+ T cells) was “no adverse effects on Th17 and Treg development” and the “PD, %” value (relapsed/refractory CLL; 100 mg BID (N = 3)) was “(0) %”. For the same molecule, the “PR, %” value (relapsed/refractory CLL; 100 mg BID (N = 3)) was “(100) %”, the “PD, %” value (relapsed/refractory CLL; 100 mg QD (N = 8)) was “(0) %” and the “PR, %” value (relapsed/refractory CLL; 100 mg QD (N = 8)) was “(88) %”. For the same molecule, the “PD, %” value (relapsed/refractory CLL; 175 mg QD (N = 8)) was “(0) %”, the “PR + L, %” value (relapsed/refractory CLL; 175 mg QD (N = 8)) was “(37) %” and the “PR, %” value (relapsed/refractory CLL; 175 mg QD (N = 8)) was “(63) %”. The “PD, %” value (relapsed/refractory CLL; 250 mg QD (N = 7)) was “(0) %”, the “PR + L, %” value (relapsed/refractory CLL; 250 mg QD (N = 7)) was “(29) %” and the “PR, %” value (relapsed/refractory CLL; 250 mg QD (N = 7)) was “(71) %”. The “PD, %” value (relapsed/refractory CLL; 400 mg QD (N = 5)) was “(0) %”, the “PR + L, %” value (relapsed/refractory CLL; 400 mg QD (N = 5)) was “(40) %” and the “PR, %” value (relapsed/refractory CLL; 400 mg QD (N = 5)) was “(40) %”. For the same molecule, the “PD, %” value (relapsed/refractory CLL; All Cohorts (N = 31)) was “(0) %”, the “PR + L, %” value (relapsed/refractory CLL; All Cohorts (N = 31)) was “(23) %” and the “PR, %” value (relapsed/refractory CLL; All Cohorts (N = 31)) was “(71) %”. The “time of treatment to reach the same median % change in SPD” value (relapsed/refractory CLL; CLL patients) was 7 months, the “Headache, treatment-related adverse event” value (relapsed/refractory CLL; Grade 1/2, All (N = 44)) was 7 (16) n (%) and the “Diarrhea, treatment-related adverse event” value (relapsed/refractory CLL; Grade 1, All (N = 44)) was 4 (9) n (%). The “Increased tendency to bruise, treatment-related adverse event” value (relapsed/refractory CLL; Grade 1, All (N = 44)) was 6 (14) n (%), the “Petechiae, treatment-related adverse event” value (relapsed/refractory CLL; Grade 1, All (N = 44)) was 3 (7) n (%) and the “dose-limiting toxicities (DLTs)” value (relapsed/refractory CLL; human, in vivo) was “No DLTs were observed”. For the same molecule, the “grade of adverse events” value (relapsed/refractory CLL; human, in vivo) was “only grade 1 AEs were observed”, the lymphocytosis (relapsed/refractory CLL; human, in vivo) was “A lack of lymphocytosis was observed” and the “plasma CXCL12 and CCL2 levels” value (relapsed/refractory CLL; human, in vivo) was “significant decrease”. The “treatment-related serious adverse events (SAEs)” value (relapsed/refractory CLL; human, in vivo) was “No treatment-related serious adverse events (SAEs) were observed” and the “progression in patients with the 17p deletion” value (relapsed/refractory CLL; to date) was “no 17p patients have progressed”.
